From US5441932A, “Sugar compounds for inhibition of the biosynthesis of sugar chains containing sialic acid” (priority 1992, dated 1995)
Entries after “also recorded” stand apart in the source; their conditions may differ.

Experiments:
[1] = Solubility (physical properties); assay type: physicochemical; details: qualitative, in words
[2] = target: β-galactoside-α-2, 6-sialyltransferase; test: Inhibition of β-galactoside-α-2,6-sialyltransferase enzyme activity (biosynthesis of sugar chains containing sialic acid, test system of Paulson et al.); assay type: biochemical; details: β-galactoside-α-2,6-sialyltransferase 1×10^-6 units, 0.075 nmol CMP-14C sialic acid, 3 mM β-methyllactosaminide, pH 6.5, 37° C., 10 minutes; read-out: 50% activity inhibition concentration
Protocol: In other words, the tests were conducted using a test system of the biosynthesis of sialic acid-sugar chains containing sialic acid which was reported by Paulson et al.
A tester solution was prepared containing the following respective reagents in 50 μl of final contents:
100 mM sodium cacodylate buffer solution (pH 6.5);
0.075 nmol cytidine-monophosphate-14C sialic acid;
3 mM β-methyllactosaminide;
A specimen compound was added in 50 μl of the tester solution, and, with addition of 1×10^-6 units of β-galactoside-α-2, 6-sialyltransferase commercially available, the mixture was left to stand at 37° C. for 10 minutes. 1 ml of 5 mM phosphoric acid buffer solution was added to stop the reaction. Then the solution was passed through an anion-exchange resin column (Dowex-1X8, phosphoric acid type, 1 ml) to remove unreacted cytidine-monophosphate-14C sialic acid. Further, the column was washed with 1 ml of 5 mM phosphoric acid buffer solution to recover radioactive sialic acid-containing sugar chains. The radioactivity was measured by a liquid scintillation counter.
The thus-measured radioactivity was shown by percentage to the radioactivity of untreated section not including the specimen compound, which was defined as inhibition activity.

[3] = Stability in acid (physical properties); assay type: physicochemical

For CO[C@@H]1O[C@H](COC(C)=O)[C@@H](O[C@@H]2O[C@H](CO[Si](C)(C)C(C)(C)C)[C@H](OC(C)=O)[C@H](OC(C)=O)[C@H]2OC(C)=O)[C@H](OC(C)=O)[C@H]1NC(C)=O [intermediate e, methyl-2-acetamide-3,6-di-O-acetyl-2-deoxy-4-O-(2,3,4-tri-O-acetyl-6-O-t-butyldimethylsilyl-β-D-galactopyranosyl)-β-D-glucopyranoside], the Solubility [1] was “Soluble in chloroform, methanol, and ethanol. Hardly soluble in water and various buffer solutions”.

Molecule “2-acetamide-2-deoxy-4-O-(6-deoxy-β-D-galactopyranosyl)-β-D-glucopyranosylated ovalbumin [Sugar compound C, sugar compound represented by the aforementioned formula (1) in which R^1 is ovalbumin and R^2 is hydrogen]” has an IC50 [2] of 10 µM.

With CO[C@@H]1O[C@H](CO)[C@@H](O[C@@H]2O[C@H](C)[C@H](O)[C@H](O)[C@H]2O)[C@H](O)[C@H]1NC(C)=O [Sugar compound A, methyl-2-acetamide-2-deoxy-4-O-(6-deoxy-β-D-galactopyranosyl)-β-D-glucopyranoside] the Solubility [1] was “Soluble in water, alkaline solutions, acid solutions, various buffer solutions, methanol, and ethanol. Hardly soluble in hexane and in chloroform”.

With CO[C@@H]1O[C@H](COC(C)=O)[C@@H](O[C@@H]2O[C@H](CO)[C@H](OC(C)=O)[C@H](OC(C)=O)[C@H]2OC(C)=O)[C@H](OC(C)=O)[C@H]1NC(C)=O [intermediate f, methyl-2-acetamide-3,6-di-O-acetyl-2-deoxy-4-O-(2,3,4-tri-O-acetyl-β-D-galactopyranosyl)-β-D-glucopyranoside] the Solubility [1] was “Soluble in chloroform, methanol, and ethanol. Hardly soluble in water and various buffer solutions”.

For CO[C@@H]1O[C@H](COC(C)=O)[C@@H](O[C@@H]2O[C@H](CSC(C)=O)[C@H](OC(C)=O)[C@H](OC(C)=O)[C@H]2OC(C)=O)[C@H](OC(C)=O)[C@H]1NC(C)=O [intermediate i, methyl-2-acetamide-3,6-di-O-acetyl-2-deoxy-4-O-(2,3,4-tri-O-acetyl-6-S-acetyl-6-deoxy-β-D-galactopyranosyl)-β-D-glucopyranoside], the Solubility [1] was “Soluble in chloroform, methanol, and ethanol. Hardly soluble in water and various buffer solutions”.

With “2-acetamide-2-deoxy-4-O-( 6-deoxy-β-D-galactopyranosyl)-β -D-glucopyranosylated fetuin [Sugar compound D]” the IC50 [2] was 4.2 µM and the Solubility [1] was “Soluble in water and various buffer solutions. Hardly soluble in organic solvents”.

For C[C@H]1O[C@H](OP(=O)(O)OP(=O)(O)OC[C@H]2O[C@@H](n3ccc(=O)[nH]c3=O)[C@H](O)[C@@H]2O)[C@H](O)[C@@H](O)[C@H]1O [intermediate b, uridine 5'-diphosphate-6-deoxy-D-galactose], the Solubility [1] was “Soluble in water, alkaline solutions, and various buffer solutions; also recorded: Hardly soluble in organic solvents” and the Decomposition in acid [3] was “Decomposed in acid”.

With “2-acetamide-2-deoxy-4-O-(6-deoxy-β-D-galactopyranosyl)-β-D-glucopyranosylated α2-macroglobulin [Sugar compound F]” the IC50 [2] was 1 µM and the Solubility [1] was “Soluble in water and various buffer solutions. Hardly soluble in organic solvents”.

For CO[C@@H]1O[C@H](COC(C)=O)[C@@H](O[C@@H]2O[C@H](COC3CCCCO3)[C@H](OC(C)=O)[C@H](OC(C)=O)[C@H]2OC(C)=O)[C@H](OC(C)=O)[C@H]1NC(C)=O (stereo partly drawn) [intermediate g, methyl-2-acetamide-3,6-di-O-acetyl-2-deoxy-4-O-(2,3,4-tri-O-acetyl-6-O-tetrahydropyranyl-β-D-galactopyranosyl)-β-D-glucopyranoside], the Solubility [1] was “Soluble in chloroform, methanol, and ethanol. Hardly soluble in water and various buffer solutions”.

With CO[C@@H]1O[C@H](COC(C)=O)[C@@H](O[C@@H]2O[C@@H]3COC(c4ccccc4)O[C@@H]3[C@H](OC(C)=O)[C@H]2OC(C)=O)[C@H](OC(C)=O)[C@H]1NC(C)=O (stereo partly drawn) [intermediate c, methyl-2-acetamide-3,6-di-O-acetyl-2-deoxy-4-O-(2,3-di-O-acetyl-4,6-O-benzylidene-β-D-galactopyranosyl)-β-D-glucopyranoside] the Solubility [1] was “Soluble in chloroform, methanol, and ethanol. Hardly soluble in water and various buffer solutions”.

For CO[C@@H]1O[C@H](CO)[C@@H](O[C@@H]2O[C@H](CS)[C@H](O)[C@H](O)[C@H]2O)[C@H](O)[C@H]1NC(C)=O [Sugar compound H, methyl-2-acetamide-2-deoxy-4-O-(6-mercapto-β-D-galactopyranosyl)-β-D-glucopyranoside], the Solubility [1] was “Soluble in water, alkaline solutions, acid solutions, various buffer solutions, methanol, and ethanol. Hardly soluble in hexane and in chloroform”.

With CO[C@@H]1O[C@H](COC(C)=O)[C@@H](O[C@@H]2O[C@H](COS(=O)(=O)c3ccc(C)cc3)[C@H](OC(C)=O)[C@H](OC(C)=O)[C@H]2OC(C)=O)[C@H](OC(C)=O)[C@H]1NC(C)=O [intermediate h, methyl-2-acetamide-3,6-di-O-acetyl-2-deoxy-4-O-(2,3,4-tri-O-acetyl-6-O-p-toluenesulfonyl-β-D-galactopyranosyl)-β-D-glucopyranoside] the Solubility [1] was “Soluble in chloroform, methanol, and ethanol. Hardly soluble in water and various buffer solutions”.

With CC(=O)N[C@H]1C(O)O[C@H](CO)[C@@H](O[C@@H]2O[C@H](C)[C@H](O)[C@H](O)[C@H]2O)[C@@H]1O (stereo partly drawn) [Sugar compound B, α- and β-2-acetamide-2-deoxy-4-O-(6-deoxy-β-D-galactopyranosyl)-D-glucose] the Solubility [1] was “Soluble in water, alkaline solutions, acid solutions, various buffer solutions, methanol, and ethanol. Hardly soluble in hexane and in chloroform”.

For CO[C@@H]1O[C@H](CO)[C@@H](O[C@@H]2O[C@H](COC3CCCCO3)[C@H](O)[C@H](O)[C@H]2O)[C@H](O)[C@H]1NC(C)=O (stereo partly drawn) [Sugar compound G, methyl-2-acetamide-2-deoxy-4-O-(6-O-tetrahydropyranyl-β-D-galactopyranosyl)-β-D-glucopyranoside], the Solubility [1] was “Soluble in water, alkaline solutions, acid solutions, various buffer solutions, methanol, and ethanol. Hardly soluble in hexane and in chloroform”.

With CO[C@@H]1O[C@H](COC(C)=O)[C@@H](O[C@@H]2O[C@H](CO)[C@H](O)[C@H](OC(C)=O)[C@H]2OC(C)=O)[C@H](OC(C)=O)[C@H]1NC(C)=O [intermediate d, methyl-2-acetamide-3,6-di-O-acetyl-2-deoxy-4-O-(2,3-di-O-acetyl-β-D-galactopyranosyl)-β-D-glucopyranoside] the Solubility [1] was “Soluble in chloroform, methanol, and ethanol. Hardly soluble in water and various buffer solutions”.

B1: 2-acetamide-2-deoxy-4-O-(6-deoxy-β-D-galactopyranosyl)-β-D-glucopyranosylated ovalbumin (conjugate, UniProt P01012 2-386, looked up)
Ovalbumin: GSIGAASMEFCFDVFKELKVHHANENIFYCPIAIMSALAMVYLGAKDSTRTQINKVVRFDKLPGFGDSIEAQCGTSVNVHSSLRDILNQITKPNDVYSFSLASRLYAEERYPILPEYLQCVKELYRGGLEPINFQTAADQARELINSWVESQTNGIIRNVLQPSSVDSQTAMVLVNAIVFKGLWEKAFKDEDTQAMPFRVTEQESKPVQMMYQIGLFRVASMASEKMKILELPFASGTMSMLVLLPDEVSGLEQLESIINFEKLTEWTSSNVMEERKIKVYLPRMKMEEKYNLTSVLMAMGITDVFSSSANLSGISSAESLKISQAVHAAHAEINEAGREVVGSAEAGVDAASVSEEFRADHPFLFCIKHIATNAVLFFGRCVSP
modifications: glycosylated with fucosyl-GlcNAc disaccharide
notes: sugar compound represented by the aforementioned formula (1) in which R^1 is ovalbumin and R^2 is hydrogen
In the case of B1, the Solubility [1] is reported as “Soluble in water and various buffer solutions. Hardly soluble in organic solvents”.

B2: 2-acetamide-2-deoxy-4-O-(6-deoxy-β-D-galactopyranosyl)-β-D-glucopyranosylated glycophorin (conjugate, UniProt P02724 20-150, looked up)
Glycophorin-A: LSTTEVAMHTSTSSSVTKSYISSQTNDTHKRDTYAATPRAHEVSEISVRTVYPPEEETGERVQLAHHFSEPEITLIIFGVMAGVIGTILLISYGIRRLIKKSPSDVKPLPSPDTDVPLSSVEIENPETSDQ
modifications: glycosylated with fucosyl-GlcNAc disaccharide
notes: sugar compound represented by the aforementioned formula (1) in which R^1 is glycophorin and R^2 is hydrogen
For B2, the IC50 [2] was 2.7 µM and the Solubility [1] was “Soluble in water and various buffer solutions. Hardly soluble in organic solvents”.
